The text below walks through data of patent US20110008461A1 (priority 2008, published 2011).

Read-outs that look alike come from different tables or passages of the source. Marks after values point to notes of the source that are not given here.

Assay [1] has as its target T1, Rat Liver Cytosolic Phosphoenolpyruvate Carboxykinase (Rattus norvegicus, UniProt P07379).
T1 sequence (P07379 1-622): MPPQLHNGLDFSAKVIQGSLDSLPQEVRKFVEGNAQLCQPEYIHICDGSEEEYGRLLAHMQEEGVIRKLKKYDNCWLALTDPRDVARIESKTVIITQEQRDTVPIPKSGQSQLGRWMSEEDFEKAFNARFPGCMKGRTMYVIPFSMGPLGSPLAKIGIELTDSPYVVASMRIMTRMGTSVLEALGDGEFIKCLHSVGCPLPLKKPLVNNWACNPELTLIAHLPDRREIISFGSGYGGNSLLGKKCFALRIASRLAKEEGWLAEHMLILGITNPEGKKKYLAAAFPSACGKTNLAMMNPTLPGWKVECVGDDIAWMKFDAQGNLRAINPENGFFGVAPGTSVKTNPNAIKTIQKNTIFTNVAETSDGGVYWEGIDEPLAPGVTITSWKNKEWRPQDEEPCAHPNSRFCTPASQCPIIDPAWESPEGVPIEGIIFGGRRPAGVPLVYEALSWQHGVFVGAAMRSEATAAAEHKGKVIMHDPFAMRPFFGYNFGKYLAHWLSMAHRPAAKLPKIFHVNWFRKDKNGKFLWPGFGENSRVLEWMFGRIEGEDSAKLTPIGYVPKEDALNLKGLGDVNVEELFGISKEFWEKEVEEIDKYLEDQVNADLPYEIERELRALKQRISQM
Put plainly: Continuous spectrophotometric PEPCK inhibition assay coupled to malate dehydrogenase (preliminary screen, inhibition patterns, Dixon plots).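 On all read-outs here: PEPCK activity followed continuously via malate dehydrogenase coupling, where OAA reduction consumes NADH, seen as falling absorbance at 340 nm, run at 35 °C.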 Conditions: for Pattern of Inhibition / Ki: PEP varied substrate; for Ki: noncompetitive.
Procedure: TES (pH 7.2), 7.5% glycerol (v:v), 0.2 mM EDTA.
The inhibition of PEPCK by various compounds was evaluated using a continuous spectrophotometric assay in which the coupling enzyme, malate dehydrogenase, reduced OAA to malate concomitant with the oxidation of NADH to NAD^+. The decrease in absorbance at 340 nm was monitored using a Beckman DU-70 Spectrophotometer equipped with a temperature controller. The standard 1-mL reaction mixture for the production of OAA contained 56 mM HEPES-KOH buffer (pH 7.0), 1 mM IDP (or alternatively, 0.1 mM GDP), 23 U malate dehydrogenase (1 unit of malate dehydrogenase is defined as 1 mole malate produced/min/mg protein), 0.25 mM NADH, 2.3 mM MnCl2, and 48 mM NaHCO3. […] All assay components except PEPCK were preincubated in the cuvette for 3 min at 35° C., the standard assay temperature.
The kinetic parameters for the inhibition studies were best fit to the equations for competitive inhibition (Eq. 1) and noncompetitive inhibition (Eq. 2), using the computer program and nomenclature of Cleland (Cleland, W. W. (1979) Statistical analysis of enzyme kinetic data. Methods Enzymol 63, 103-138).
v=VA/[K(1+1/Kis)+A] (Eq. 1)
v=VA/[K(1/Kis)+A(1+1/Kii)] (Eq. 2)
The parameters are defined as follows: v is the initial velocity, V is the maximal rate of product formation in the absence of inhibitor, A is the concentration of the variable substrate, K is the apparent Michaelis constant for the varied substrate, and Kis and Kii are the inhibition constants.

Assay [2] has as its target pyrophosphate-dependent phosphofructokinase. Conditions: reported; cited from earlier work.
The target in the next assay is T2, avian liver mPEPCK (Gallus gallus, UniProt P21642).
T2 sequence (P21642 34-641): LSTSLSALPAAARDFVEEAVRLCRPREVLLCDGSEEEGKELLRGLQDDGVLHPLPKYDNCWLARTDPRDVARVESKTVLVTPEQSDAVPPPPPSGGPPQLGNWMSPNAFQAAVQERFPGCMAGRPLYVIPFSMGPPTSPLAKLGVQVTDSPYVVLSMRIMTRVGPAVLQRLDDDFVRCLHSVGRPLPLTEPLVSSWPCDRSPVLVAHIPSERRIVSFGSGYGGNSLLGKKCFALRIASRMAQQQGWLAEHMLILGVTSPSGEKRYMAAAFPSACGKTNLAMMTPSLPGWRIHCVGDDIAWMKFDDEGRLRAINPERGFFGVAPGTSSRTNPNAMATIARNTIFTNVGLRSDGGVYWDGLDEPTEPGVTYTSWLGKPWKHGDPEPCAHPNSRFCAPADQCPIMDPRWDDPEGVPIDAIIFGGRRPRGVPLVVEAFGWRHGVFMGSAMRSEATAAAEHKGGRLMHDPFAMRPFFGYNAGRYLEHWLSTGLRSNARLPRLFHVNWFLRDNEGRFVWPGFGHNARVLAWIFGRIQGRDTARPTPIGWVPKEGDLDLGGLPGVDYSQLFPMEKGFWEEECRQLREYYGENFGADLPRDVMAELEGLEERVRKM
Conditions: with respect to OAA; cited from earlier work.

The Ki is the dissociation constant of the complex between target and ligand, obtained from inhibition or displacement. What is called IC50 is the point on the concentration scale where inhibition reaches its midpoint. `O=P(O)(O)CP(=O)(O)O` [Compound 29, Methanediphosphonate]: the “Pattern of Inhibition” value was “noncompetitive” in assay [1] and “Noncompetitive” in assay [1] (listed as Methanediphosphonate (29)). For the same compound, the “% Activity Remaining” value in assay [1] (analogue 1.5 mM, PEP 40 μM, preliminary screen, average of two PEPCK preparations) is on record as 4^f %. Besides, the Ki was found to be 90 ± 5 µM in assay [1] (read-out: Ki, intercept effect (Kii)) and 32 ± 2 µM in assay [1] (read-out: Ki, slope effect (Kis), Cleland kinetics program). In addition, the concentration for half-maximal inhibition (IC50) in assay [2] was over 2000 µM.
Take `O=C(O)C(=O)CS(=O)(=O)O` [β-sulfopyruvate]: the Pattern of Inhibition result on avian liver mPEPCK is “competitive”.
